Reference: patent US20130338106A1, “COMPOUNDS INHIBITING LEUCINE-RICH REPEAT KINASE ENZYME ACTIVITY” (priority 2011, published 2013)

Key:
Format in all cases: biochemical
Conditions in all cases: tested at 10 uM, read-out: percent inhibition of the kinase activity
PRKCQ = target: T1, PRKCQ (Homo sapiens, UniProt Q04759); assay: ProfilerPro Kinase Selectivity, PRKCQ
T1 construct: purchased Caliper LifeSciences
Method: (§1) Kinome selectivity profiling was performed using two example compounds according to the manufacturer's instructions using Caliper LifeSciences' ProfilerPro Kinase Selectivity Assay Kits. Compounds prepared in Examples 1 and 7 were tested at 10 uM and data were recorded using the Caliper LabChip® EZ Reader™. Each compounds' percent inhibition of the kinase activity measured in this manner is reported in the following lists.

PKG1A = target: T2, PKG1A (Homo sapiens, UniProt Q13976); assay: ProfilerPro Kinase Selectivity, PKG1A
T2 construct: purchased Caliper LifeSciences
T2 sequence (Q13976 whole entry): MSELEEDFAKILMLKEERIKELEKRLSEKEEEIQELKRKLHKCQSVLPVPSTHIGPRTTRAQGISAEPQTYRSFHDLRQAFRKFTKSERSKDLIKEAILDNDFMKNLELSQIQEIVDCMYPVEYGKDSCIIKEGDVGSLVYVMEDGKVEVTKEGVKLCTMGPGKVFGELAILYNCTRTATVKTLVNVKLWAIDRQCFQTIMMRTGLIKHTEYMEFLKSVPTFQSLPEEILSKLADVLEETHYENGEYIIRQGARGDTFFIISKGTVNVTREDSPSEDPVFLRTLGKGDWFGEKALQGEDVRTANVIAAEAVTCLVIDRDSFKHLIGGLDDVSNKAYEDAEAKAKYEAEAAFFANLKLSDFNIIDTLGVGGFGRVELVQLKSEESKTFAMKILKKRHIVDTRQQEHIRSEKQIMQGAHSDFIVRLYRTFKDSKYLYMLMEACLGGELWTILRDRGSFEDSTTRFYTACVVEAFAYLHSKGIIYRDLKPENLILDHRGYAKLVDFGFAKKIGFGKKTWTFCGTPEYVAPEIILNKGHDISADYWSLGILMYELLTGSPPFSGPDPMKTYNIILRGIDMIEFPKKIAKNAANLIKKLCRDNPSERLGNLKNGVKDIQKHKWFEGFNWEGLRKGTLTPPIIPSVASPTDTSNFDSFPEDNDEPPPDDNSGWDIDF
Method: as §1

ABL H396P = target: T3, ABL H396P (Homo sapiens, UniProt P00519, H396P); assay: ProfilerPro Kinase Selectivity, ABL H396P
T3 construct: purchased Caliper LifeSciences
Method: as §1

PYK2 = target: T4, PYK2 (Homo sapiens, UniProt Q14289); assay: ProfilerPro Kinase Selectivity, PYK2
T4 construct: purchased Caliper LifeSciences
Method: as §1

ITK = target: T5, ITK (Homo sapiens, UniProt Q08881); assay: ProfilerPro Kinase Selectivity, ITK
T5 construct: purchased Caliper LifeSciences
T5 sequence (Q08881 whole entry, species assumed): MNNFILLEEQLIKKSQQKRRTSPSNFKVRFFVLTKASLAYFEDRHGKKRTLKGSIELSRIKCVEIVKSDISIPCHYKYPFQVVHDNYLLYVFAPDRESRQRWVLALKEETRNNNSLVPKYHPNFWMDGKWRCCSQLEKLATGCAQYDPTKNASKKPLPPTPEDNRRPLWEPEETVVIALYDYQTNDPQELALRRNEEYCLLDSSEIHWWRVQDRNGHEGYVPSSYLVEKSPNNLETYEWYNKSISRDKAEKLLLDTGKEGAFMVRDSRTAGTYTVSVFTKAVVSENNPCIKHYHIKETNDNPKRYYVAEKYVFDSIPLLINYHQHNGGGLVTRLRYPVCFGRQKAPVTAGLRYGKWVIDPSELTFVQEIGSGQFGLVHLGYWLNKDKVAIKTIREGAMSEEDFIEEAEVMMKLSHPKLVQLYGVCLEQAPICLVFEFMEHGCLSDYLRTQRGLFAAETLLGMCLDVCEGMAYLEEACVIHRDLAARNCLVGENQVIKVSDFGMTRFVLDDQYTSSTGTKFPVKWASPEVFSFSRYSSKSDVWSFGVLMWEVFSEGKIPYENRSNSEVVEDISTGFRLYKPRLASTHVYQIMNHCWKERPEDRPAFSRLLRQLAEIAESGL
Method: as §1

EPHA4 = target: T6, EPHA4 (Homo sapiens, UniProt P54764); assay: ProfilerPro Kinase Selectivity, EPHA4
T6 construct: purchased Caliper LifeSciences
T6 sequence (P54764 20-986, species assumed): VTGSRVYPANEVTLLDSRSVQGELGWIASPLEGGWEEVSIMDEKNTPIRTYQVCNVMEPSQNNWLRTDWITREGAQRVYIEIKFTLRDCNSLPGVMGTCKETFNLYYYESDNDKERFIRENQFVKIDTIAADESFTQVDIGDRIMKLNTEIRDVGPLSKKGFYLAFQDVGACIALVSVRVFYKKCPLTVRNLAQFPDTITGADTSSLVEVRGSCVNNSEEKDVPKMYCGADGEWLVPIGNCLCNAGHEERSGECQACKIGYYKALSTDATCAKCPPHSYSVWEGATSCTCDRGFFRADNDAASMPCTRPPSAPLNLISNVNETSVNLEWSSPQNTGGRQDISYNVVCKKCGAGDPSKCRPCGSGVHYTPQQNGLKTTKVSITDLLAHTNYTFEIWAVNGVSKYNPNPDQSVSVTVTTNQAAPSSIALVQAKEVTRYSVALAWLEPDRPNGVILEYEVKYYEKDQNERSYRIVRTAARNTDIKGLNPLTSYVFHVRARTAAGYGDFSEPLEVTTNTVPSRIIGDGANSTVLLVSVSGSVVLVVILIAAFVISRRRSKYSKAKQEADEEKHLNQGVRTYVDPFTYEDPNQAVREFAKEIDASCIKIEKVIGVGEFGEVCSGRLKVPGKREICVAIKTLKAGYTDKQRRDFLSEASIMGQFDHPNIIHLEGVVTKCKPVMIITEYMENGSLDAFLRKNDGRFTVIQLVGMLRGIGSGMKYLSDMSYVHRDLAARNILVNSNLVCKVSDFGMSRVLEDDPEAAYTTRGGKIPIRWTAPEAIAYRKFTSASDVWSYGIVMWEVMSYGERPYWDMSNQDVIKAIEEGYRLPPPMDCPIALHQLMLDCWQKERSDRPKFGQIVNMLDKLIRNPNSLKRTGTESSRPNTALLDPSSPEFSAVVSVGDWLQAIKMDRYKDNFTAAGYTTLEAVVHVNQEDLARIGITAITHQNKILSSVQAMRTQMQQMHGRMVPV
Method: as §1

MARK2 = target: T7, MARK2 (Homo sapiens, UniProt Q7KZI7); assay: ProfilerPro Kinase Selectivity, MARK2
T7 construct: purchased Caliper LifeSciences
Method: as §1

LOK = target: T8, LOK (Homo sapiens, UniProt O94804); assay: ProfilerPro Kinase Selectivity, LOK
T8 construct: purchased Caliper LifeSciences
T8 sequence (O94804 whole entry, species assumed): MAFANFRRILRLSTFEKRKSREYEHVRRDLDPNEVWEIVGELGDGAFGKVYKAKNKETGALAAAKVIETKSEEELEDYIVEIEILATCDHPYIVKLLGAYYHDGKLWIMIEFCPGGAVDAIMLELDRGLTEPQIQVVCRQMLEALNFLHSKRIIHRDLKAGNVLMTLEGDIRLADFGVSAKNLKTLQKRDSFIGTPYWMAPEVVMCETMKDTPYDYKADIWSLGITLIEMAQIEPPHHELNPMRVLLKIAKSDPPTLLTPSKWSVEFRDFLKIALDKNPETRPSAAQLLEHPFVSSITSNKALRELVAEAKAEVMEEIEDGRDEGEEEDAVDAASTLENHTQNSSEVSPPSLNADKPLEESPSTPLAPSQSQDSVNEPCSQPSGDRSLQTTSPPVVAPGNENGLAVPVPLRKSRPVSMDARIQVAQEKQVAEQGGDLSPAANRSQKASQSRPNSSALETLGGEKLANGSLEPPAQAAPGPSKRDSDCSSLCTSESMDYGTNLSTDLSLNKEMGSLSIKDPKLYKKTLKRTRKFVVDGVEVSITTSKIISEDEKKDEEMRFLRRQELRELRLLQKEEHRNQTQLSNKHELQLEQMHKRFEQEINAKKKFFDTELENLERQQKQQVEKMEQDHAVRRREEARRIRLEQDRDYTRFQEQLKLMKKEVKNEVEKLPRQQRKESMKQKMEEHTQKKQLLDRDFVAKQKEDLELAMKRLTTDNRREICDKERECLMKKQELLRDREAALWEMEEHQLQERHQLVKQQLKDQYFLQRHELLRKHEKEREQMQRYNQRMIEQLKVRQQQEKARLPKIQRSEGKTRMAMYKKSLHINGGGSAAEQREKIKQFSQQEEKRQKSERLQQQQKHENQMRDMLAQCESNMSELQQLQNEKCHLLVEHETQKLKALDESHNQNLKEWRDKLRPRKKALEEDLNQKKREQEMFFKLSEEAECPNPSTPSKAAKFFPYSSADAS
Method: as §1

BTK = target: T9, BTK (Homo sapiens, UniProt Q06187); assay: ProfilerPro Kinase Selectivity, BTK
T9 construct: purchased Caliper LifeSciences
Method: as §1

AXL = target: T10, AXL (Homo sapiens, UniProt P30530); assay: ProfilerPro Kinase Selectivity, AXL
T10 construct: purchased Caliper LifeSciences
Method: as §1

P38G = target: T11, P38G (Homo sapiens, UniProt P53778); assay: ProfilerPro Kinase Selectivity, P38G
T11 construct: purchased Caliper LifeSciences
Method: as §1

CAMK1A = target: T12, CAMK1A (Homo sapiens, UniProt Q14012); assay: ProfilerPro Kinase Selectivity, CAMK1A
T12 construct: purchased Caliper LifeSciences
Method: as §1

MER = target: T13, MER (Homo sapiens, UniProt Q12866); assay: ProfilerPro Kinase Selectivity, MER
T13 construct: purchased Caliper LifeSciences
Method: as §1

INSR = target: T14, INSR (Homo sapiens, UniProt P06213); assay: ProfilerPro Kinase Selectivity, INSR
T14 construct: purchased Caliper LifeSciences
T14 sequence (P06213 28-1382, species assumed): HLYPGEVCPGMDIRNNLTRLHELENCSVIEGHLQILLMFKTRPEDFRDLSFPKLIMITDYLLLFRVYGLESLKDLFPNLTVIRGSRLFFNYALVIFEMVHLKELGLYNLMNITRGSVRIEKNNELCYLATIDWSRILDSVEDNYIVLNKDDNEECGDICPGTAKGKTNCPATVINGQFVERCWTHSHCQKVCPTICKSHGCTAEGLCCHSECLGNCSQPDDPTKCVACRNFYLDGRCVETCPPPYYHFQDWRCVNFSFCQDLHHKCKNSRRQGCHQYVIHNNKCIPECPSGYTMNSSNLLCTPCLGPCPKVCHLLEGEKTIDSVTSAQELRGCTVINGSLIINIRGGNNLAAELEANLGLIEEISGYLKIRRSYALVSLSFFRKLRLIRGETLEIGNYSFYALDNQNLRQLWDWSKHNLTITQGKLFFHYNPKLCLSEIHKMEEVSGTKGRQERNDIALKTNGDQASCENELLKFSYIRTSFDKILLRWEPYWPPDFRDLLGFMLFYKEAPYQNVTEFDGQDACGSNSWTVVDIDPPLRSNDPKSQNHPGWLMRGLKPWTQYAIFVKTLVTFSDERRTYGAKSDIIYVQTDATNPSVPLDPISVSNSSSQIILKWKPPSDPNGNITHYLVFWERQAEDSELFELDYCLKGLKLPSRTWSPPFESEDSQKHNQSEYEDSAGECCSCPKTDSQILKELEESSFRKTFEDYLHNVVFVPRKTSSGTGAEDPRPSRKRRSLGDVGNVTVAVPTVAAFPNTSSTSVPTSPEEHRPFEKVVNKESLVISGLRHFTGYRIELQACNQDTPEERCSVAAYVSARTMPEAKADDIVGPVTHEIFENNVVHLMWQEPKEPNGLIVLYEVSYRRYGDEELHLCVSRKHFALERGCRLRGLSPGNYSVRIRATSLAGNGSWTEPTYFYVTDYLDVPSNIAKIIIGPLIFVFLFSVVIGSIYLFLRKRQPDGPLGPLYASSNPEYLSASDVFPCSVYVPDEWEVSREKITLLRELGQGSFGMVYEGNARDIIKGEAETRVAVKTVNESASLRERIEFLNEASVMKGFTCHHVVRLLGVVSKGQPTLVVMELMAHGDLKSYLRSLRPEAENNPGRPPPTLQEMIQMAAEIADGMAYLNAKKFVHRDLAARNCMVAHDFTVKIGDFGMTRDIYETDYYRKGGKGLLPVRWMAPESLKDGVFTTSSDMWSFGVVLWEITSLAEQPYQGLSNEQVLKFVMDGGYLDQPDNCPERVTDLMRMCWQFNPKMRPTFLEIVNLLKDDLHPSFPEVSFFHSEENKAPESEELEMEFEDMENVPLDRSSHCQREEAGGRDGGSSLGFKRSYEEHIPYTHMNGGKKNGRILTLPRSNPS
Method: as §1

BLK = target: T15, BLK (Homo sapiens, UniProt P51451); assay: ProfilerPro Kinase Selectivity, BLK
T15 construct: purchased Caliper LifeSciences
T15 sequence (P51451 whole entry, species assumed): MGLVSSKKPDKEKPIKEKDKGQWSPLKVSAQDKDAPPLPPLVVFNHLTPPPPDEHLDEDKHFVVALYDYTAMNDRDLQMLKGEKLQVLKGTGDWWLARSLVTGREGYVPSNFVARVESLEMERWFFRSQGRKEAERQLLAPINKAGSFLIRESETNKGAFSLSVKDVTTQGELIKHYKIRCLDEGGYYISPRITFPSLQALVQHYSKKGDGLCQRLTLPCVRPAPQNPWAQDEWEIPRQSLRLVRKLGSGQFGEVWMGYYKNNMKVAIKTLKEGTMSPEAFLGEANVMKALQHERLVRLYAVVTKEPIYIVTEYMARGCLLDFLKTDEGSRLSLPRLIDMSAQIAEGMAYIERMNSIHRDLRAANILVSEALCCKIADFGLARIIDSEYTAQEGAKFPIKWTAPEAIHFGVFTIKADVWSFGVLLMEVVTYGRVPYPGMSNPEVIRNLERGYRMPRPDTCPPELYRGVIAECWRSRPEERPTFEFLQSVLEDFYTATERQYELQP
Method: as §1

Structure (SMILES)	inhibition at 10 µM (PRKCQ)	inhibition at 10 µM (PKG1A)	inhibition at 10 µM (ABL H396P)	inhibition at 10 µM (PYK2)	inhibition at 10 µM (ITK)	inhibition at 10 µM (EPHA4)	inhibition at 10 µM (MARK2)	inhibition at 10 µM (LOK)	inhibition at 10 µM (BTK)	inhibition at 10 µM (AXL)	inhibition at 10 µM (P38G)	inhibition at 10 µM (CAMK1A)	inhibition at 10 µM (MER)	inhibition at 10 µM (INSR)	inhibition at 10 µM (BLK)
CSc1sc(-c2cc[nH]n2)c2c1C(=O)CCC2 [Example 1, 3-(Methylsulfanyl)-1-(1H-pyrazol-3-yl)-6,7-dihydro-2-benzothiophen-4(5H)-one]	-0.4%	-5.9%	10.3%	4.2%	4.8%	-0.8%	0.3%	7.5%	3.1%	13.5%	23.3%	7.4%	23.8%	3.4%	6.6%
CC1(C)CC(=O)c2c(SC3CCCC3)sc(-c3cc[nH]n3)c2C1 [Example 7, 3-(Cyclopentylsulfanyl)-6,6-dimethyl-1-(1H-pyrazol-3-yl)-6,7-dihydro-2-benzothiophen-4(5H)-one]	-4.7%	1.9%	3.1%	-0.6%	-2.9%	-3.5%	9.2%	-32.6%	4.8%	12.3%	-0.2%	6%	8%	0.9%	3.2%
